The numbers were not newly measured in patent US8404246B2, “Nutritional supplement to improve supplementary target protein fraction (TPF) delivery, intracellular absorption and utilization” (priority 2010, dated 2013), which cites them from elsewhere.

Read-outs that look alike come from different tables or passages of the source.

For data set [1] the following is noted: exogenous form.

For the molecule `Cl.N[C@H]1C(O)O[C@H](CO)[C@@H](O)[C@@H]1O` (stereo partly drawn) [glucosamine HCl], the “ingested glycoprotein detectable in serum after dosing” value (in vivo) is 6%.

Turning to glucosamine NaCl, for the setting “one recent study”, the “ingested glycoprotein detectable in serum after dosing” value is given as 9%.

`CC(=O)N[C@H]1C(O)O[C@H](CO)[C@@H](O)[C@@H]1O` (stereo partly drawn) [N-acetyl D-glucosamine, N-Acetyl D-Glucosamine]: the solubility in water result in data set [1] is given as “readily soluble”.
